Reference: US10874743B2, “IRAK degraders and uses thereof” (Kymera Therapeutics, Inc., priority 2017, dated 2020)

What was measured:
IRAK4 [1] = target: T1, IRAK4 (Homo sapiens, UniProt Q9NWZ3); test: OCI-LY-10 MSD assay for IRAK4 DC50; type: cell-based; design: endogenous in cells; host or cells: OCI-LY10; details: OCI-LY10 cells, 4 hr incubation, concentration required to degrade 50% of protein
T1 sequence (Q9NWZ3 1-460): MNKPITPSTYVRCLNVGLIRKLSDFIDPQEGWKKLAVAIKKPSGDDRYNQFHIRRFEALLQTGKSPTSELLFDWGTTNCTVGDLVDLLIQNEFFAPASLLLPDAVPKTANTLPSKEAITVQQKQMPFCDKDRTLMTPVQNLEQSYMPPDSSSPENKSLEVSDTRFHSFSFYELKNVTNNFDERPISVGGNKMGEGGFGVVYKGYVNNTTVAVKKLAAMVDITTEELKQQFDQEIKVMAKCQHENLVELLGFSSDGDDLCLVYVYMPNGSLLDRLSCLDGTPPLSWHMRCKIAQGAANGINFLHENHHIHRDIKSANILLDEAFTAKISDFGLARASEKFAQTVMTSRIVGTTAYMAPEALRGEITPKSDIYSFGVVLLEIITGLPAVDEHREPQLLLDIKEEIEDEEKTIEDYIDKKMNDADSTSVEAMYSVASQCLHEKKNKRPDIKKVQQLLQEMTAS
Method in brief: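 IRAK4 level was quantified by MSD electrochemiluminescence (anti-IRAK4 capture antibody, rabbit anti-IRAK4 detection antibody) in RIPA lysates of OCI-Ly10 cells. Cells had been treated with compound for 4 hr (8-point, 3-fold serial dilution). Remaining protein versus concentration was fitted to a sigmoidal curve to give DC50.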

IRAK4 [2] = target: T1, IRAK4; test: OCI-LY-10 degradation assay (western blot, % IRAK4 degraded after 4 hours); type: cell-based; design: endogenous in cells; host or cells: OCI-LY10; details: OCI-LY10 cells, 4 hours; for OCI-LY10 % IRAK4 Degradation (0.01 uM): 0.01 uM compound; for OCI-LY10 % IRAK4 Degradation (0.1 uM): 0.1 uM compound; for OCI-LY10 % IRAK4 Degradation (1 uM): 1 uM compound
Method in brief: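 IRAK4 loss after 4 h at 37° C was scored A (>50%), B (>20-50%) or C (<20%) from infrared western blots of RIPA lysates, 20-25 μg protein per lane. Compound was applied at 0.003-10 μM final to OCI-LY10 cells cultured in RPMI-1640 with 20% FBS and 55 μM 2-ME.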

Row | SMILES | DC50 (IRAK4 [1]) | OCI-LY10 % IRAK4 Degradation (0.01 uM) (IRAK4 [2]) | OCI-LY10 % IRAK4 Degradation (0.1 uM) (IRAK4 [2]) | OCI-LY10 % IRAK4 Degradation (1 uM) (IRAK4 [2])
1 | CN(CCOCCOCCCc1ccc2c(c1)C(=O)N(C1CCC(=O)NC1=O)C2=O)C(=O)c1ccc(-n2cc(NC(=O)c3coc(-c4ccnc(NCC5CC5)c4)n3)c(C(N)=O)n2)cc1 (centres unmarked) [I-228] | < 50 nM | A (>50% degradation) | A (>50% degradation) | A (>50% degradation)
2 | NC(=O)c1nn(-c2ccc(C(=O)NCCOCCOCCn3c(=O)n(C4CCC(=O)NC4=O)c4ccccc43)cc2)cc1NC(=O)c1coc(-c2ccnc(NCC(F)(F)F)c2)n1 (centres unmarked) [I-231] | < 50 nM | A (>50% degradation) | A (>50% degradation) | A (>50% degradation)
3 | NC(=O)c1nn(-c2ccc(C(=O)NCCOCCOCCOCCOCCCc3cccc4c3C(=O)N(C3CCC(=O)NC3=O)C4=O)cc2)cc1NC(=O)c1coc(-c2ccnc(NCC(F)(F)F)c2)n1 (centres unmarked) [I-235] | 50 to 100 nM | C (<20% degradation) | A (>50% degradation) | A (>50% degradation)
4 | NC(=O)c1nn(CCOCCOCCOCCOCCNc2cccc3c2C(=O)N(C2CCC(=O)NC2=O)C3=O)cc1NC(=O)c1coc(-c2ccnc(NCC3CC3)c2)n1 (centres unmarked) [I-240] | > 1000 nM | B (>20-50% degradation) | B (>20-50% degradation) | B (>20-50% degradation)
5 | Cc1cc(-c2nc(C(=O)Nc3cn(-c4ccc(C(=O)NCCOCCOCCNc5cccc6c5C(=O)N(C5CCC(=O)NC5=O)C6=O)cc4)nc3C(N)=O)co2)ccn1 (centres unmarked) [I-241] | < 50 nM | B (>20-50% degradation) | A (>50% degradation) | A (>50% degradation)
6 | O=C1CCC(N2C(=O)c3cccc(NCCNCCCCCNC(=O)c4ccc(-n5cc(NC(=O)c6coc(-c7ccnc(NC8CC8)c7)n6)c(C(F)F)n5)cc4)c3C2=O)C(=O)N1 (centres unmarked) [I-242] | < 50 nM | B (>20-50% degradation) | A (>50% degradation) | A (>50% degradation)
7 | Cn1c(=O)n(C2CCC(=O)NC2=O)c2ccc(CCCOCCOCCNC(=O)c3ccc(-n4cc(NC(=O)c5coc(-c6ccnc(NCC7CC7)c6)n5)c(C(F)F)n4)cc3)cc21 (centres unmarked) [I-252] | < 50 nM | B (>20-50% degradation) | A (>50% degradation) | A (>50% degradation)
8 | O=C1CCC(N2C(=O)c3cccc(CCCNC(=O)c4ccc(-n5cc(NC(=O)c6coc(-c7ccncc7)n6)c(C(F)F)n5)cc4)c3C2=O)C(=O)N1 (centres unmarked) [I-255] | > 1000 nM | C (<20% degradation) | C (<20% degradation) | C (<20% degradation)
9 | O=C1CCC(N2C(=O)c3cccc(CCCCCN4CCC(n5cc(NC(=O)c6coc(-c7ccnc(NCC8CC8)c7)n6)c(C(F)F)n5)CC4)c3C2=O)C(=O)N1 (centres unmarked) [I-258] | > 1000 nM | C (<20% degradation) | B (>20-50% degradation) | C (<20% degradation)
10 | O=C1CCC(N2C(=O)c3ccc(CCOCCN4CCC(n5cc(NC(=O)c6coc(-c7ccnc(NCC8CC8)c7)n6)c(C(F)F)n5)CC4)cc3C2=O)C(=O)N1 (centres unmarked) [I-262] | > 1000 nM | C (<20% degradation) | B (>20-50% degradation) | B (>20-50% degradation)
11 | O=C1CCC(n2c(=O)oc3c(CCCOCCOCCNC(=O)c4ccc(-n5cc(NC(=O)c6coc(-c7ccnc(NCC8CC8)c7)n6)c(C(F)F)n5)cc4)cccc32)C(=O)N1 (centres unmarked) [I-265] | < 50 nM | B (>20-50% degradation) | A (>50% degradation) | A (>50% degradation)
